# Reference: patent publication US20230114728A1 (Venatorx Pharmaceuticals, Inc., priority 2019, published 2023)
# Tests used:
# N. gonorrhoeae WHO G = assay: Liquid broth MIC in Fastidious broth; assay type: cell-based; conditions: Neisseria gonorrhoeae; N. gonorrhoeae strain WHO G; Fastidious broth; read-out: Minimum Inhibitory Concentration, N. gonorrhoeae WHO G
# How it was run: (§1)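 Colonies were swabbed from chocolate agar after 24 h growth and standardised by optical density at 600 nm. Compounds were serially diluted twofold in Fastidious broth, and bacteria added to give 5×10^5 CFU/mL. After about 24 h at 36 °C in 5% CO2, the lowest concentration allowing under 10% growth was taken as MIC.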
# N. gonorrhoeae WHO Z = assay: Liquid broth MIC in Fastidious broth; assay type: cell-based; conditions: Neisseria gonorrhoeae, read-out: Minimum Inhibitory Concentration, N. gonorrhoeae WHO Z
# How it was run: (§2)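 Broth microdilution in Fastidious broth with 2-fold compound series; inoculum from 24 h chocolate agar colonies, 5×10^5 CFU/mL start. Incubated ~24 hours at 36° C, 5% CO2. MIC read visually as lowest concentration giving <10% growth versus full-growth wells; strains carry mosaic PBP2.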
# [1] = tested on: N. gonorrhoeae ATCC 49226; assay: Liquid broth MIC in Fastidious broth; assay type: cell-based; conditions: Neisseria gonorrhoeae, ATCC49226; N. gonorrhoeae strain ATCC 49226; Fastidious broth; read-out: Minimum Inhibitory Concentration, N. gonorrhoeae ATCC 49226
# How it was run: as §1
# N. gonorrhoeae WHO K = assay: Liquid broth MIC in Fastidious broth; assay type: cell-based; conditions: Neisseria gonorrhoeae, read-out: Minimum Inhibitory Concentration, N. gonorrhoeae WHO K
# How it was run: as §2
# N. gonorrhoeae WHO L = assay: Liquid broth MIC in Fastidious broth; assay type: cell-based; conditions: Neisseria gonorrhoeae; N. gonorrhoeae strain WHO L; Fastidious broth; read-out: Minimum Inhibitory Concentration, N. gonorrhoeae WHO L
# How it was run: as §1
# N. gonorrhoeae H041 = assay: Liquid broth MIC in Fastidious broth; assay type: cell-based; conditions: Neisseria gonorrhoeae, H041, read-out: Minimum Inhibitory Concentration, N. gonorrhoeae H041
# How it was run: as §2
# N. gonorrhoeae FA1090 = assay: Liquid broth MIC in Fastidious broth; assay type: cell-based; conditions: Neisseria gonorrhoeae; N. gonorrhoeae strain FA1090; Fastidious broth; read-out: Minimum Inhibitory Concentration, N. gonorrhoeae FA1090
# How it was run: as §1
# N. gonorrhoeae WHO Q = assay: Liquid broth MIC in Fastidious broth; assay type: cell-based; conditions: Neisseria gonorrhoeae, read-out: Minimum Inhibitory Concentration, N. gonorrhoeae WHO Q
# How it was run: as §2
# E. coli K12 PBP3 = target: T1, E. coli K12 PBP3 (Escherichia coli, UniProt P0AD68); assay: biochemical; assay type: binding
# T1 construct: made in house
# How it was run: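 A. baumannii PBP2 (2.5 μM) and PBP3 (0.2 μM) were run in 25 mM Tris pH 8.0 buffer with Tween 20; E. coli PBP3 (1.5 μM) and N. gonorrhoeae PBP2 ([…]) in 50 mM Hepes pH 8.0 buffer.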
# T1 sequence (P0AD68 1-577): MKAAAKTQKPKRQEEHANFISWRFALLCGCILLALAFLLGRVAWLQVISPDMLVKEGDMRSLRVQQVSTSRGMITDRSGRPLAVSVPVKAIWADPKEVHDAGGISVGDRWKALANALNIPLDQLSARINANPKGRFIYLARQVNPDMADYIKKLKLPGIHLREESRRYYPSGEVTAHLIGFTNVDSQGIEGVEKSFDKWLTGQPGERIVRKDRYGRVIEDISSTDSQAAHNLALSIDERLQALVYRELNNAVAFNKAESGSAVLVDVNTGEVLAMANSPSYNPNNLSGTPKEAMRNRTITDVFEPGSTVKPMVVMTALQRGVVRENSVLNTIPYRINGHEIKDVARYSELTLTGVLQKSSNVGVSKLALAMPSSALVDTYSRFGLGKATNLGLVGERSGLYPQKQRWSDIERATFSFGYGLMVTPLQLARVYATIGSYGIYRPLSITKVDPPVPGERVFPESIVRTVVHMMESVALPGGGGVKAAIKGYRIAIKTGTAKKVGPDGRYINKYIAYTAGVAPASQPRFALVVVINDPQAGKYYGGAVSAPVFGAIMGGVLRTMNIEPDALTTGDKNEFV
Compound,MIC (N. gonorrhoeae WHO G) [µg/mL],MIC (N. gonorrhoeae WHO Z) [µg/mL],MIC [1] [µg/mL],MIC (N. gonorrhoeae WHO K) [µg/mL],MIC (N. gonorrhoeae WHO L) [µg/mL],MIC (N. gonorrhoeae H041) [µg/mL],MIC (N. gonorrhoeae FA1090) [µg/mL],MIC (N. gonorrhoeae WHO Q) [µg/mL],EC50 (E. coli K12 PBP3) [µM]
"CCN1CCN(C(=O)NC(C(=O)N[C@H]2Cc3cccc(C(=O)O)c3OB2O)c2c(F)cc(NS(N)(=O)=O)cc2F)C(=O)C1=O (stereo partly drawn) [Example 176, (3R)-3-(2-(2,6-difluoro-4-(sulfamoylamino)phenyl)-2-(4-ethyl-2,3-dioxopiperazine-1-carboxamido)acetamido)-2-hydroxy-3,4-dihydro-2H-benzo[e][1,2]oxaborinine-8-carboxylic acid]",4 to 8,16 to 32,4 to 8,> 64,> 64,> 64,0.25 to 0.5,> 64,< 30
"NS(=O)(=O)Nc1cccc(C(NC(=O)N2CCN(CCF)C(=O)C2=O)C(=O)N[C@H]2Cc3cccc(C(=O)O)c3OB2O)c1 (stereo partly drawn) [Example 116, (3R)-3-(2-(4-(2-fluoroethyl)-2,3-dioxopiperazine-1-carboxamido)-2-(3-(sulfamoylamino)phenyl)acetamido)-2-hydroxy-3,4-dihydro-2H-benzo[e][1,2]oxaborinine-8-carboxylic acid]",4 to 8,16 to 32,16 to 32,16 to 32,> 64,> 64,0.25 to 0.5,16 to 32,< 30
"CCN1CCN(C(=O)NC(C(=O)N[C@H]2Cc3cccc(C(=O)O)c3OB2O)c2c(F)cc(C(=O)O)cc2F)C(=O)C1=O (stereo partly drawn) [Example 157, (3R)-3-(2-(4-carboxy-2,6-difluorophenyl)-2-(4-ethyl-2,3-dioxopiperazine-1-carboxamido)acetamido)-2-hydroxy-3,4-dihydro-2H-benzo[e][1,2]oxaborinine-8-carboxylic acid]",1 to 2,4 to 8,4 to 8,4 to 8,4 to 8,16 to 32,< 0.125,4 to 8,< 30
"CCN1CCN(C(=O)NC(C(=O)N[C@H]2Cc3cccc(C(=O)O)c3OB2O)c2cc(Cl)c(C(=O)O)cc2F)C(=O)C1=O (stereo partly drawn) [Example 138, (3R)-3-(2-(4-carboxy-5-chloro-2-fluorophenyl)-2-(4-ethyl-2,3-dioxopiperazine-1-carboxamido)acetamido)-2-hydroxy-3,4-dihydro-2H-benzo[e][1,2]oxaborinine-8-carboxylic acid]",1 to 2,4 to 8,4 to 8,16 to 32,16 to 32,16 to 32,< 0.125,4 to 8,< 30
"CCN1CCN(C(=O)NC(C(=O)N[C@H]2Cc3cccc(C(=O)O)c3OB2O)c2cccc(CNS(N)(=O)=O)c2)C(=O)C1=O (stereo partly drawn) [Example 107, (3R)-3-(2-(4-ethyl-2,3-dioxopiperazine-1-carboxamido)-2-(3-((sulfamoylamino)methyl)phenyl)acetamido)-2-hydroxy-3,4-dihydro-2H-benzo[e][1,2]oxaborinine-8-carboxylic acid]",16 to 32,> 64,> 64,> 64,> 64,> 64,1 to 2,> 64,30 to 500
"NCCN1CCN(C(=O)NC(C(=O)N[C@H]2Cc3cccc(C(=O)O)c3OB2O)c2c(F)cc(NS(N)(=O)=O)cc2F)C(=O)C1=O (stereo partly drawn) [Example 177, (3R)-3-(2-(4-(2-aminoethyl)-2,3-dioxopiperazine-1-carboxamido)-2-(2,6-difluoro-4-(sulfamoylamino)phenyl)acetamido)-2-hydroxy-3,4-dihydro-2H-benzo[e][1,2]oxaborinine-8-carboxylic acid]",16 to 32,> 64,> 64,> 64,> 64,> 64,4 to 8,> 64,30 to 500
"C[C@@H](O)[C@@H](NC(=O)N1CCN(CCNC(=O)c2c(F)cc(O)c(O)c2Cl)C(=O)C1=O)C(=O)N[C@H]1Cc2ccc(F)c(C(=O)O)c2OB1O [Example 102, (R)-3-((2R,3R)-2-(4-(2-(2-chloro-6-fluoro-3,4-dihydroxybenzamido)ethyl)-2,3-dioxopiperazine-1-carboxamido)-3-hydroxybutanamido)-7-fluoro-2-hydroxy-3,4-dihydro-2H-benzo[e][1,2]oxaborinine-8-carboxylic acid]",16 to 32,> 64,> 64,> 64,> 64,> 64,16 to 32,> 64,30 to 500
